Read-outs that look alike come from different tables or passages of the source.
Legend:
[1] = target: T1, JAK1(JH1domain-catalytic) (Homo sapiens, UniProt P23458); assay: KINOMEScan; type: binding; parameters: dose or concentration left out as unconfirmed
T1 construct: JAK1(JH1domain-catalytic); purchased DiscoverX KINOMEscan

KIT T670I = KIT T670I (Homo sapiens, UniProt P10721, T670I); assay: KIT auto-phosphorylation in transformed BaF3 cells; settings: 2h
CDK2 = target: T2, CDK2 (Homo sapiens, UniProt P24941); assay: KINOMEScan; type: binding; parameters: dose or concentration left out as unconfirmed
T2 construct: purchased DiscoverX KINOMEscan

[2] = system: CSF1R transformed BaF3 cells; assay: Anti-proliferation assay, transformed BaF3 cells; type: cell-based; settings: Mus musculus
Experimental: Then we used the DiscoverX’s KINOMEScan platform to further examine CHMFL-KIT-031’s kinome-wide selectivity profile. […] Besides the strong binding to V559D, it also bound strongly to KIT wt, L576P and A829P.
Cells were grown in 96-well culture plates (2500/well). The compounds of various concentrations were added into the plates. Cell proliferation was determined after treatment with compounds for 72 hours. Cell viability was measured using the CellTiter–Glo assay (Promega, USA), according to the manufacturer’s instructions, and luminescence was measured in a multi-label reader (Envision, PerkinElmer, USA). Data were normalized to control groups (DMSO) and represented by the mean of three independent measurements with standard error <20%. GI50 values were calculated using Prism 5.0 (GraphPad Software, San Diego, CA).

LOK = target: T3, LOK (Homo sapiens, UniProt O94804); assay: KINOMEScan; type: binding; parameters: dose or concentration left out as unconfirmed
T3 construct: purchased DiscoverX KINOMEscan

IRAK4 = target: T4, IRAK4 (Homo sapiens, UniProt Q9NWZ3); assay: KINOMEScan; type: binding; parameters: dose or concentration left out as unconfirmed
T4 construct: purchased DiscoverX KINOMEscan

EGFR(E746-A750del) = target: T5, EGFR(E746-A750del) (Homo sapiens, UniProt P00533, DEL746-750); assay: KINOMEScan; type: binding; settings: Concentrations 1 mM
T5 construct: purchased DiscoverX KINOMEscan

MKK7 = target: T6, MKK7 (Homo sapiens, UniProt O14733); assay: KINOMEScan; type: binding; parameters: dose or concentration left out as unconfirmed
T6 construct: purchased DiscoverX KINOMEscan

CDK8 = target: T7, CDK8 (Homo sapiens, UniProt P49336); assay: KINOMEScan; type: binding; parameters: dose or concentration left out as unconfirmed
T7 construct: purchased DiscoverX KINOMEscan

SYK = target: T8, SYK (Homo sapiens, UniProt P43405); assay: KINOMEScan; type: binding; parameters: dose or concentration left out as unconfirmed
T8 construct: purchased DiscoverX KINOMEscan

CDK3 = target: T9, CDK3 (Homo sapiens, UniProt Q00526); assay: KINOMEScan; type: binding; parameters: dose or concentration left out as unconfirmed
T9 construct: purchased DiscoverX KINOMEscan

MET(Y1235D) = target: T10, MET(Y1235D) (Homo sapiens, UniProt P08581, Y1235D); assay: KINOMEScan; type: binding; parameters: dose or concentration left out as unconfirmed
T10 construct: purchased DiscoverX KINOMEscan

KIT V654A = KIT V654A (Homo sapiens, UniProt P10721, V654A); assay: KIT auto-phosphorylation in transformed BaF3 cells; settings: 2h
KIT V559D = KIT V559D (Homo sapiens, UniProt P10721, V559D); assay: KIT auto-phosphorylation in transformed BaF3 cells; settings: 2h
KIT A829P = KIT A829P (Homo sapiens, UniProt P10721, A829P); assay: KIT auto-phosphorylation in transformed BaF3 cells
ARK5 = target: T11, ARK5 (Homo sapiens, UniProt O60285); assay: KINOMEScan; type: binding; parameters: dose or concentration left out as unconfirmed
T11 construct: purchased DiscoverX KINOMEscan

[3] = target: T12, TYK2(JH1domain-catalytic) (Homo sapiens, UniProt P29597); assay: KINOMEScan; type: binding; parameters: dose or concentration left out as unconfirmed
T12 construct: TYK2(JH1domain-catalytic); purchased DiscoverX KINOMEscan

CIT = target: T13, CIT (Homo sapiens, UniProt O14578); assay: KINOMEScan; type: binding; parameters: dose or concentration left out as unconfirmed
T13 construct: purchased DiscoverX KINOMEscan

JNK3 = target: T14, JNK3 (Homo sapiens, UniProt P53779); assay: KINOMEScan; type: binding; parameters: dose or concentration left out as unconfirmed
T14 construct: purchased DiscoverX KINOMEscan

BMPR2 = target: T15, BMPR2 (Homo sapiens, UniProt Q13873); assay: KINOMEScan; type: binding; parameters: dose or concentration left out as unconfirmed
T15 construct: purchased DiscoverX KINOMEscan

ULK1 = target: T16, ULK1 (Homo sapiens, UniProt O75385); assay: KINOMEScan; type: binding; parameters: dose or concentration left out as unconfirmed
T16 construct: purchased DiscoverX KINOMEscan

QSK = target: T17, QSK (Homo sapiens, UniProt Q9Y2K2); assay: KINOMEScan; type: binding; parameters: dose or concentration left out as unconfirmed
T17 construct: purchased DiscoverX KINOMEscan

EGFR(L861Q) = target: T18, EGFR(L861Q) (Homo sapiens, UniProt P00533, L861Q); assay: KINOMEScan; type: binding; parameters: dose or concentration left out as unconfirmed
T18 construct: purchased DiscoverX KINOMEscan

DCAMKL1 = target: T19, DCAMKL1 (Homo sapiens, UniProt O15075); assay: KINOMEScan; type: binding; parameters: dose or concentration left out as unconfirmed
T19 construct: purchased DiscoverX KINOMEscan

KIT D816V = KIT D816V (Homo sapiens, UniProt P10721, D816V); assay: KIT auto-phosphorylation in transformed BaF3 cells; settings: 2h
p38-alpha = target: T20, p38-alpha (Homo sapiens, UniProt Q16539); assay: KINOMEScan; type: binding; parameters: dose or concentration left out as unconfirmed
T20 construct: purchased DiscoverX KINOMEscan

[4] = system: AKT, S6, ERK, p70S6K and STAT3 phosphorylation; assay: Signaling pathway study in BaF3-TEL-KIT-V559D cells; type: cell-based; settings: KIT-V559D transformed stable BaF3 cells, Western blot
KIT wt = KIT wt (Homo sapiens, UniProt P10721); assay: KIT auto-phosphorylation in transformed BaF3 cells; type: cell-based; settings: 2h
[5] = EC50 pY703 auto-phosphorylation
[6] = EC50 pY719 auto-phosphorylation
[7] = EC50 pY823 auto-phosphorylation

Sequence of KIT V654A (P10721 546-976 V654A): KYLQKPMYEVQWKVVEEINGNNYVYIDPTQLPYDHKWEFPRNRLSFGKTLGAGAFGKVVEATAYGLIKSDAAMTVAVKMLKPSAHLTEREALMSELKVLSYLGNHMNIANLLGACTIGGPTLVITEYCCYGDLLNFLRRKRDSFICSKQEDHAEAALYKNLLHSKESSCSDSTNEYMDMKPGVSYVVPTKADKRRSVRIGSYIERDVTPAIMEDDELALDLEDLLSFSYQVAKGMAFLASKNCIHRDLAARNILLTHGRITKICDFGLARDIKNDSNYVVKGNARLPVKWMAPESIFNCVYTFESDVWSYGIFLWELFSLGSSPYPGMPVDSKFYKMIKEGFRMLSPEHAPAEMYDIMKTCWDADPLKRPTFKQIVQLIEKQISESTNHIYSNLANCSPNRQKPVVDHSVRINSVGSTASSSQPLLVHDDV
Sequence of KIT A829P (P10721 26-976 A829P): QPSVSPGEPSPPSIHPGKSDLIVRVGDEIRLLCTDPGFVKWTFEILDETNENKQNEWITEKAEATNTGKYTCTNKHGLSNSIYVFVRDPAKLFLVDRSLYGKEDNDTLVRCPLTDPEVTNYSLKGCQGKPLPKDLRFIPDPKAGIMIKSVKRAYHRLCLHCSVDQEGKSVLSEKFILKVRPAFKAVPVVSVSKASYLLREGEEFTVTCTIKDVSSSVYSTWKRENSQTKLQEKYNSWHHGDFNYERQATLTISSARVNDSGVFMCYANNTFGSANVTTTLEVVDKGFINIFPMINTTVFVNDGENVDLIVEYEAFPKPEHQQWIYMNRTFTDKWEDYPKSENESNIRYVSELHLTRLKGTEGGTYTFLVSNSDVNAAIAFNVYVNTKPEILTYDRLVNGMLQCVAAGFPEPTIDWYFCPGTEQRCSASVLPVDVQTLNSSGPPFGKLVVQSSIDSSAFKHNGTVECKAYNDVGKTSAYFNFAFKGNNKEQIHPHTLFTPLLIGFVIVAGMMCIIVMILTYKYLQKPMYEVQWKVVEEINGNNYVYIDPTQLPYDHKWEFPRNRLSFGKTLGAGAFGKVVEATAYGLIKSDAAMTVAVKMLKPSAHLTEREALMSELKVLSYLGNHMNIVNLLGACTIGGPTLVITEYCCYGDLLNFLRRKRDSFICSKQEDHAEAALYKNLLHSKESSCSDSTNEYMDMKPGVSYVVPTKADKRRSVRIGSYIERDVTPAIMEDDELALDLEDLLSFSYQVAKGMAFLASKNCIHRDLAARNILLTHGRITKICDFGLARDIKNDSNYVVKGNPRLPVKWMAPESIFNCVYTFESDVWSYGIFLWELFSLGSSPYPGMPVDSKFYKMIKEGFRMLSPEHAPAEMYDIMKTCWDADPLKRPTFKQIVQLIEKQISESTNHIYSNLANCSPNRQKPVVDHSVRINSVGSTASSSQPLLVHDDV
Sequence of KIT T670I (P10721 26-976 T670I): as the sequence (P10721 26-976 A829P) above, with T645I, P804A counted along it
Sequence of KIT D816V (P10721 26-976 D816V): as the sequence (P10721 26-976 A829P) above, with D791V, P804A counted along it
Sequence of KIT wt (P10721 546-937 limits assumed): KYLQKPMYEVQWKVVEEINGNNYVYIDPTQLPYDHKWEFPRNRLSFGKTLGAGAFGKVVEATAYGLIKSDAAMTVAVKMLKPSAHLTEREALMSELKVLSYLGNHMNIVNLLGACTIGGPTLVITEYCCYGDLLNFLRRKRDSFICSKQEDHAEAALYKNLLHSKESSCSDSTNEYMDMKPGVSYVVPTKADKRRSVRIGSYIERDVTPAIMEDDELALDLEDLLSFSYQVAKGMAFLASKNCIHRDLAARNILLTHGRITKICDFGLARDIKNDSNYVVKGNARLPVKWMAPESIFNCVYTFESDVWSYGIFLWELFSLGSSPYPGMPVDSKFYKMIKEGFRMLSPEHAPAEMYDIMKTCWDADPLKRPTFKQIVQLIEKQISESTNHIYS
Sequence of KIT V559D (P10721 546-976 V559D): as the sequence (P10721 546-976 V654A) above, with V14D, A109V counted along it
T11 sequence (O60285 whole entry): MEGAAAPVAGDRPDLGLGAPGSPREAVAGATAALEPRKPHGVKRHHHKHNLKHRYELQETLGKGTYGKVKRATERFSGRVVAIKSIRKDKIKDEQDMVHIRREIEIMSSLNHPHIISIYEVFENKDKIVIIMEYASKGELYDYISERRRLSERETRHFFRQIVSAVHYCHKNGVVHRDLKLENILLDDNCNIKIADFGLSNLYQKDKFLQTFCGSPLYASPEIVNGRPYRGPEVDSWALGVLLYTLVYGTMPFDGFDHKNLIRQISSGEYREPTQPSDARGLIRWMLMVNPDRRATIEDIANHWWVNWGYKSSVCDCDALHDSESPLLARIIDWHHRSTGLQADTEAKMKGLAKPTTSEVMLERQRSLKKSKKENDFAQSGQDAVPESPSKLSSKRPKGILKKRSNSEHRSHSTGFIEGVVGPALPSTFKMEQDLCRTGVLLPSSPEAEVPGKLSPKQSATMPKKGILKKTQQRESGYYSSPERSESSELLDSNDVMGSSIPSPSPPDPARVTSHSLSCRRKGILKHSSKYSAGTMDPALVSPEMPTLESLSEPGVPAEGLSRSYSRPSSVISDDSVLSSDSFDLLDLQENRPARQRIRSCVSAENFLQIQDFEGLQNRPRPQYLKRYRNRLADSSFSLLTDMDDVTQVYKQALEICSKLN
T16 sequence (O75385 whole entry): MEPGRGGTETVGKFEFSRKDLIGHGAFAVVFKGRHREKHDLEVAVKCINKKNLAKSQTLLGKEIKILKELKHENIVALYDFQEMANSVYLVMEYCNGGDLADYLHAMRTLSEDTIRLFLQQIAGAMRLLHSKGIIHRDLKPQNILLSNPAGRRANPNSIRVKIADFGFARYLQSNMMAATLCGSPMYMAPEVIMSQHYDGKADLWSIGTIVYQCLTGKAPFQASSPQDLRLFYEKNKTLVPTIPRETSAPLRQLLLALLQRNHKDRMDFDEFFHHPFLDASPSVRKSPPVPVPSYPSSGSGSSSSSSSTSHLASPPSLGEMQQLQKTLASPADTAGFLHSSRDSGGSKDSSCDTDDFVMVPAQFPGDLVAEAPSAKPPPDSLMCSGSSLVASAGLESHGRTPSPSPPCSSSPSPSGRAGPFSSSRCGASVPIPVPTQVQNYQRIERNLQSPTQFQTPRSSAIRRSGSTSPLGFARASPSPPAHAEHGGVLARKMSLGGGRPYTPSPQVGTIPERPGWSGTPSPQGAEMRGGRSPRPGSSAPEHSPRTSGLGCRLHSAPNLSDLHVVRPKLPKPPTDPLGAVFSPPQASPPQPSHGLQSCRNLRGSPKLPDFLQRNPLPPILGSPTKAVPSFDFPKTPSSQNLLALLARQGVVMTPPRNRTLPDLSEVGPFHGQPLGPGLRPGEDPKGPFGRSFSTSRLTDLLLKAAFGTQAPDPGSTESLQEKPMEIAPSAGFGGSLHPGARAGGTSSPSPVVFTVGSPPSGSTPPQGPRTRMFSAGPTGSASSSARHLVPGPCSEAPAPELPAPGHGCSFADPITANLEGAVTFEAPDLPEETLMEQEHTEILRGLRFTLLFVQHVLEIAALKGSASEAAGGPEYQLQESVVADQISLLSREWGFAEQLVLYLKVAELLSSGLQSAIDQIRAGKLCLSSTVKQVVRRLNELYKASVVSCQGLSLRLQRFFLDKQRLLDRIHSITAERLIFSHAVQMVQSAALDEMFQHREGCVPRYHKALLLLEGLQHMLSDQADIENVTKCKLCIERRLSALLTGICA
T6 sequence (O14733 whole entry): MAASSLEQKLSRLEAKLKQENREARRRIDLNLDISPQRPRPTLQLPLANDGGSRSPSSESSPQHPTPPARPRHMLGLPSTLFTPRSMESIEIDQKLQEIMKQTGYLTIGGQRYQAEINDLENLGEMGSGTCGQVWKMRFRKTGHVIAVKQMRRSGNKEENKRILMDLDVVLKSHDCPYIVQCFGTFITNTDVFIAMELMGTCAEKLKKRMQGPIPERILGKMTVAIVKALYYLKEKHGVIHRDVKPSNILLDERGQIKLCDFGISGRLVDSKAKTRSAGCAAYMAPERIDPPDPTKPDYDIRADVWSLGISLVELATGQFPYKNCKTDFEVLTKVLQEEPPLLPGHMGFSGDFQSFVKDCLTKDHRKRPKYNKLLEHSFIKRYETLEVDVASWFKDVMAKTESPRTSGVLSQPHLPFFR
T15 sequence (Q13873 27-1038): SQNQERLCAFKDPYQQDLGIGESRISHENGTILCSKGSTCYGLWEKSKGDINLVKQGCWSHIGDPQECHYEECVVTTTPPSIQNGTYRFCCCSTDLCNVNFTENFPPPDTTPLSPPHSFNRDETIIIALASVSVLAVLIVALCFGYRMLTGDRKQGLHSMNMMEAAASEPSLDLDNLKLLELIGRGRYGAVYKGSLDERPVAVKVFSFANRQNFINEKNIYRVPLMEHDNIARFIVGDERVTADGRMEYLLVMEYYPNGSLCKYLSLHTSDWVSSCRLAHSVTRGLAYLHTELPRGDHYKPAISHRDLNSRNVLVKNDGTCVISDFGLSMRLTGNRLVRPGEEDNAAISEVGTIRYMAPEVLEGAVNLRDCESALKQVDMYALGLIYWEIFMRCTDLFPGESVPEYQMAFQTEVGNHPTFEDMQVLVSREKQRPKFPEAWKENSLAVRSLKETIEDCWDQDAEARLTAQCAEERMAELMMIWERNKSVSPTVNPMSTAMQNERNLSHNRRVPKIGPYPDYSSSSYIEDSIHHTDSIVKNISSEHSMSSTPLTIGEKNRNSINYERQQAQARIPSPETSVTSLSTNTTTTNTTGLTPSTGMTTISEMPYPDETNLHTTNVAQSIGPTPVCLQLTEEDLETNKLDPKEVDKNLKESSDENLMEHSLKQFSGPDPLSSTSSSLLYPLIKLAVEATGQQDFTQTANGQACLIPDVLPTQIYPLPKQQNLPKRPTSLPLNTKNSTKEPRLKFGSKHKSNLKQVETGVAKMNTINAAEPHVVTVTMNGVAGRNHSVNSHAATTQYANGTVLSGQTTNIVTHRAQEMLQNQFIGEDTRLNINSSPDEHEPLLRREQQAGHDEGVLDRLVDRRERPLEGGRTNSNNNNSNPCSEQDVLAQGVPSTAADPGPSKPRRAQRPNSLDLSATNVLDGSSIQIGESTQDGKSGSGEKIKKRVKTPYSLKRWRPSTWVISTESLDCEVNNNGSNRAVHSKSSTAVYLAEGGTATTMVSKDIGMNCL

COc1cc(C(=O)NCC(=O)Nc2ccc3c(/C=C/c4ccccn4)n[nH]c3c2)cc(OC)c1OC [CHMFL-KIT-031]
KINOMEScan profiling value [1]: 87
EC50 (KIT T670I; [5]): > 10000 nM
EC50 (KIT T670I; [6]): > 10000 nM
EC50 (KIT T670I; [7]): 1100 nM
KINOMEScan profiling value (CDK2): 100
GI50 [2]: 2400 nM
KINOMEScan profiling value (LOK): 96
KINOMEScan profiling value (IRAK4): 100
KINOMEScan profiling value (EGFR(E746-A750del)): 100
KINOMEScan profiling value (MKK7): 100
KINOMEScan profiling value (CDK8): 100
KINOMEScan profiling value (SYK): 100
KINOMEScan profiling value (CDK3): 100
KINOMEScan profiling value (MET(Y1235D)): 100
EC50 (KIT V654A; [5]): 508 nM
EC50 (KIT V654A; [6]): 2200 nM
EC50 (KIT V654A; [7]): 4600 nM
EC50 (KIT V559D; [5]): 151 nM
EC50 (KIT V559D; [6]): 137 nM
EC50 (KIT V559D; [7]): 118 nM
EC50 (KIT A829P): > 10000 nM
EC50 (KIT A829P; read-out: EC50 pY719 auto-phosphorylation, KIT A829P transformed BaF3 cells, 2h): > 10000 nM
EC50 (KIT A829P; read-out: EC50 pY823 auto-phosphorylation, KIT A829P transformed BaF3 cells, 2h): > 10000 nM
KINOMEScan profiling value (ARK5): 97
KINOMEScan profiling value [3]: 100
KINOMEScan profiling value (CIT): 64
KINOMEScan profiling value (JNK3): 99
KINOMEScan profiling value (BMPR2): 100
KINOMEScan profiling value (ULK1): 92
KINOMEScan profiling value (QSK): 82
KINOMEScan profiling value (EGFR(L861Q)): 100
KINOMEScan profiling value (DCAMKL1): 100
EC50 (KIT D816V; [5]): > 10000 nM
EC50 (KIT D816V; [6]): > 10000 nM
EC50 (KIT D816V; [7]): 4590 nM
KINOMEScan profiling value (p38-alpha): 94
phosphorylation of downstream mediators AKT, S6, ERK, p70S6K and STAT3 [4]: potently inhibited
EC50 (KIT wt; read-out: EC50 pY703 auto-phosphorylation): 1900 nM
EC50 (KIT wt; read-out: EC50 pY719 auto-phosphorylation): 8200 nM
EC50 (KIT wt; read-out: EC50 pY823 auto-phosphorylation): 6900 nM

Source: PMC5762309 (Oncotarget, 2017)
